Experimental data from publication PMC4972190, “In vitro activity of salinomycin and monensin derivatives against Trypanosoma brucei” (Parasites & Vectors, 2016).
In brackets after ≈: the same amount, converted by molar mass. Where two headings read alike, the source gives them in different places.

Assays:
[1] = tested on: human myeloid leukaemia HL-60 cells; assay: Toxicity assay (resazurin, 72 h) on HL-60 cells; type: cell-based; details: for MIC: determined microscopically, mean of three experiments; for GI50: Homo sapiens
Method: (§1) Bloodstream forms of T. brucei (clone 427-221a) and human myeloid leukaemia HL-60 cells were grown in Baltz medium and RPMI medium, respectively. Both culture media were supplemented with 16.7 % (v/v) heat-inactivated foetal calf serum. All cultures were maintained in a humidified atmosphere containing 5 % CO2 at 37 °C.
(§2) Cells were seeded in 96-well plates in a final volume of 200 μl of their respective culture medium containing 10-fold serial dilutions of ionophore derivatives (10^-4 to 10^-10 M) and 1 % DMSO. Wells containing medium and 1 % DMSO served as controls. The initial cell densities were 1 × 10^4/ml for T. brucei and 1 × 10^5/ml for HL-60 cells. After 24 h incubation at 37 °C in a humidified atmosphere containing 5 % CO2, 20 μl of a 0.44 mM resazurin solution prepared in PBS was added and the cells were incubated for a further 48 h so that the total incubation time was 72 h. Thereafter, the plates were read on a microplate reader using a test wavelength of 570 nm and a reference wavelength of 630 nm. The 50 % growth inhibition (GI50) value, i.e. the concentration of a compound necessary to reduce the growth rate of cells by 50 % compared to the control was determined by linear interpolation according to the method described in [22]. The minimum inhibitory concentration (MIC) values, i.e. the concentration of the drug at which all trypanosome and human cells were killed, was determined microscopically. Each compound was independently tested three times.

[2] = tested on: Bloodstream forms of T. brucei (clone 427-221a); assay: Toxicity assay (resazurin, 72 h) on bloodstream forms of T. brucei; type: cell-based, Trypanosoma brucei; details: for Selectivity GI50 ratio: GI50(HL-60)/GI50(T. brucei); for Selectivity MIC ratio: MIC(HL-60)/MIC(T. brucei); for GI50 / MIC: 72 h; for MIC: concentration at which all cells were killed, determined microscopically, mean of three experiments
Method: as §1, §2

[3] = tested on: bloodstream forms of T. brucei; assay: Measurement of changes in cell volume by light scattering; type: cell-based, Trypanosoma brucei; details: 100 μM; 5 × 10^7 cells/ml; measured every 15 min; decrease in absorbance = increase in cell volume
Method: Change in cell volume was determined by light scattering as previously described. In brief, bloodstream forms of T. brucei were seeded at a density of 5 × 10^7 cells/ml in 96-well plates in a final volume of 200 μl culture medium containing 100 μM of salinomycin or the salonimycin derivatives SAL-E7 or SAL-AM2 and 1 % DMSO. Absorbance of the cultures was measured at 490 nm every 15 min. A decrease in absorbance corresponded to an increase in cell volume. The experiment was repeated three times.
Change in cell volume can be measured by light scattering at 450–550 nm whereby a decrease in absorbance indicates swelling of cells. In order to be able to record measurable absorbance changes, a high cell density is required. […] However, the derivatives caused a slightly faster swelling of the cells than salinomyicn. […] During further incubation, trypanosomes increased their cell volume but cell swelling was much slower and much less. […] However, it seems that the transport efficiency determines the trypanocidal potency of salinomycin derivatives.
Fig. 3 Effect of salinomycin derivatives on the cell volume of bloodstream forms of T. brucei. […] Every 15 min, the absorbance at 490 nm was measured. […] Note that a decrease in absorbance corresponds to an increase in cell volume

[4] = Trypanosoma brucei, T. brucei bloodstream forms
[5] = HL-60 cells, 72 h, resazurin, mean ± SD of three experiments, read-out: GI50
[6] = Trypanosoma brucei, T. brucei bloodstream forms, read-out: MIC
[7] = Trypanosoma brucei, T. brucei bloodstream forms, resazurin, mean ± SD of three experiments, read-out: GI50

SMILES | MIC ([1]; HL-60 cells, 72 h) [µM] | GI50 ([1]; HL-60, 72 h) [µM] | Selectivity GI50 ratio [2] | Selectivity MIC ratio [2] | GI50 ([2]; Trypanosoma brucei) [µM] | MIC [2, 4] [µM] | Effect on cell volume (absorbance at 490 nm) [3] | MIC ([2]; T. brucei bloodstream forms) [µM] | MIC ([2]; T. brucei bloodstream forms, listed as salinomycin n-butyl amide) | MIC ([2]; T. brucei bloodstream forms, read-out: MIC) [µM] | GI50 [1, 5] [µM] | MIC [2, 6] [µM] | GI50 [2, 7] [µM]
CCCCOC(=O)C(CC)C1CCC(C)C(C(C)C(O)C(C)C(=O)C(CC)C2OC3(C=CC(O)C4(CCC(C)(C5CCC(O)(CC)C(C)O5)O4)O3)C(C)CC2C)O1 (stereo not shown) [SAL-E4] | 100 (≈ 80.7 µg/mL) | 32.9 ± 2.5 | 10.5 | 10 | 3.12 ± 0.08 | 10 (≈ 8.07 µg/mL) |  |  |  |  |  |  | 
CCCCNC(=O)C(CC)C1CCC(C)C(C(C)C(O)C(C)C(=O)C(CC)C2OC3(C=CC(O)C4(CCC(C)(C5CCC(O)(CC)C(C)O5)O4)O3)C(C)CC2C)O1 (stereo not shown) [SAL-AM2, salinomycin n-butyl amide] | 100 (≈ 80.6 µg/mL) | 14.5 ± 1.3 | greater than 250 |  | 0.04 ± 0.007 |  | cell swelling similar to parasites treated with salinomycin | 0.1 to 1 | below 1 μM | 0.1 (≈ 0.0806 µg/mL) |  |  | 
CCC(C(=O)OCCO)C1CCC(C)C(C(C)C(O)C(C)C(=O)C(CC)C2OC3(C=CC(O)C4(CCC(C)(C5CCC(O)(CC)C(C)O5)O4)O3)C(C)CC2C)O1 (stereo not shown) [SAL-E2] | 100 (≈ 79.5 µg/mL) | 34.6 ± 1.9 | 10.6 | 10 | 3.25 ± 0.26 | 10 (≈ 7.95 µg/mL) |  |  |  |  |  |  | 
CCC(C(=O)NCCc1c[nH]c2ccccc12)C1CCC(C)C(C(C)C(O)C(C)C(=O)C(CC)C2OC3(C=CC(O)C4(CCC(C)(C5CCC(O)(CC)C(C)O5)O4)O3)C(C)CC2C)O1 (stereo not shown) [SAL-AM4] | 100 (≈ 89.3 µg/mL) | 24.5 ± 3.7 | 9.1 | 10 | 2.69 ± 0.51 | 10 (≈ 8.93 µg/mL) |  |  |  |  |  |  | 
C=CCOC(=O)C(CC)C1CCC(C)C(C(C)C(O)C(C)C(=O)C(CC)C2OC3(C=CC(O)C4(CCC(C)(C5CCC(O)(CC)C(C)O5)O4)O3)C(C)CC2C)O1 (stereo not shown) [SAL-E3] | 100 (≈ 79.1 µg/mL) | 33.8 ± 3.5 | 10.9 | 10 | 3.1 ± 0.21 | 10 (≈ 7.91 µg/mL) |  |  |  |  |  |  | 
C=CCNC(=O)OCC1(O)OC(C2CC(C)C(C3(CC)CCC(C4(C)CCC5(CC(O)C(C)C(C(C)C(OC)C(C)C(=O)O)O5)O4)O3)O2)C(C)CC1C (stereo not shown) [MON-UR1] | 100 (≈ 75.4 µg/mL) | 23.3 ± 6.6 | 75 | 100 | 0.31 ± 0.06 | 1 (≈ 0.754 µg/mL) |  |  |  |  |  |  | 
C=CCNC(=O)C(CC)C1CCC(C)C(C(C)C(O)C(C)C(=O)C(CC)C2OC3(C=CC(O)C4(CCC(C)(C5CCC(O)(CC)C(C)O5)O4)O3)C(C)CC2C)O1 (stereo not shown) [SAL-AM1] | 100 (≈ 79 µg/mL) | 38.9 ± 3.2 | 12.0 | 10 | 3.23 ± 0.21 | 10 (≈ 7.9 µg/mL) |  |  |  |  |  |  | 
CCC(C(=O)OCc1ccccc1)C1CCC(C)C(C(C)C(O)C(C)C(=O)C(CC)C2OC3(C=CC(O)C4(CCC(C)(C5CCC(O)(CC)C(C)O5)O4)O3)C(C)CC2C)O1 (stereo not shown) [SAL-E5] | 100 (≈ 84.1 µg/mL) | 38.4 ± 4.2 |  | 10 | 3.21 ± 0.02 | 10 (≈ 8.41 µg/mL) |  |  |  |  |  |  | 
CCC(C(=O)NCCc1ccc(F)cc1)C1CCC(C)C(C(C)C(O)C(C)C(=O)C(CC)C2OC3(C=CC(O)C4(CCC(C)(C5CCC(O)(CC)C(C)O5)O4)O3)C(C)CC2C)O1 (stereo not shown) [SAL-AM5] | 100 (≈ 87.2 µg/mL) | 39.2 ± 1.6 | 14.6 | 10 | 2.69 ± 0.2 | 10 (≈ 8.72 µg/mL) |  |  |  |  |  |  | 
CC[C@@]1([C@@H]2O[C@@H]([C@H]3O[C@@](O)(CO)[C@H](C)C[C@@H]3C)C[C@@H]2C)CC[C@H]([C@]2(C)CC[C@]3(C[C@H](O)[C@@H](C)[C@@H]([C@@H](C)[C@@H](OC)[C@H](C)C(=O)O)O3)O2)O1 [Monensin, monensin] | 10 (≈ 6.71 µg/mL) |  | 51 | 100 |  |  |  |  |  |  | 1.48 ± 0.56 | 0.1 (≈ 0.0671 µg/mL) | 0.029 ± 0.002
CCC(C(=O)OC)C1CCC(C)C(C(C)C(O)C(C)C(=O)C(CC)C2OC3(C=CC(O)C4(CCC(C)(C5CCC(O)(CC)C(C)O5)O4)O3)C(C)CC2C)O1 (stereo not shown) [SAL-E1] | 100 (≈ 76.5 µg/mL) | 35.5 ± 2.4 | 11.4 | 10 | 3.08 ± 0.18 | 10 (≈ 7.65 µg/mL) |  |  |  |  |  |  | 
CCC1(C2OC(C3OC(O)(CO)C(C)CC3C)CC2C)CCC(C2(C)CCC3(CC(O)C(C)C(C(C)C(OC)C(C)C(=O)OCCO)O3)O2)O1 (stereo not shown) [MON-E2] | 100 (≈ 71.5 µg/mL) | 25.3 ± 5 | 9.2 | 10 | 2.76 ± 0.1 | 10 (≈ 7.15 µg/mL) |  |  |  |  |  |  | 
CCC(C(=O)NCc1ccccc1)C1CCC(C)C(C(C)C(O)C(C)C(=O)C(CC)C2OC3(C=CC(O)C4(CCC(C)(C5CCC(O)(CC)C(C)O5)O4)O3)C(C)CC2C)O1 (stereo not shown) [SAL-AM3] | 100 (≈ 84 µg/mL) | 7.92 ± 1.95 | 2.7 | 10 | 2.94 ± 0.2 | 10 (≈ 8.4 µg/mL) |  |  |  |  |  |  | 
CCC1(C2OC(C3OC(O)(CO)C(C)CC3C)CC2C)CCC(C2(C)CCC3(CC(O)C(C)C(C(C)C(OC)C(C)C(=O)OCCOCCOC)O3)O2)O1 (stereo not shown) [MON-E3] | 100 (≈ 77.3 µg/mL) | 20.3 ± 3.1 | 12.1 | 10 | 1.68 ± 0.56 | 10 (≈ 7.73 µg/mL) |  |  |  |  |  |  | 
Cc1ccc(C(=O)Nc2ccc(S(=O)(=O)O)c3cc(S(=O)(=O)O)cc(S(=O)(=O)O)c23)cc1NC(=O)c1cccc(NC(=O)Nc2cccc(C(=O)Nc3cc(C(=O)Nc4ccc(S(=O)(=O)O)c5cc(S(=O)(=O)O)cc(S(=O)(=O)O)c45)ccc3C)c2)c1 [Suramin, suramin, reference compound] | > 100 |  | > 2857 | > 1000 |  |  |  |  |  |  | > 100 | 0.1 (≈ 0.13 µg/mL) | 0.035 ± 0.002
CCC1(C2OC(C3OC(O)(CO)C(C)CC3C)CC2C)CCC(C2(C)CCC3(CC(O)C(C)C(C(C)C(OC)C(C)C(=O)OC)O3)O2)O1 (stereo not shown) [MON-E1] | 100 (≈ 68.5 µg/mL) | 34.1 ± 2.2 | 11.1 | 10 | 3.06 ± 0.06 | 10 (≈ 6.85 µg/mL) |  |  |  |  |  |  | 
